Measurements published in patent US20130225830A1, “POLYMORPHS OF FEBUXOSTAT” (MAPI PHARMA LIMITED, priority 2010, published 2013).

Assays:
Format in all cases: physicochemical
[1] = Physical stability measurements (XRPD, DSC, TGA)
Protocol: Testing conditions: 40° C., 60° C., 40° C./RH 75%, 60° C./RH 75%, light
Testing procedure: About 50 mg of a febuxostat form were weighed in glass vial for testing the physical stability and were stored under different conditions for 1 week and 2 weeks, separately. The same febuxostat form was stored at −20° C. as control. XRPD, DSC and TGA of each of the febuxostat forms were measured at the end of the first and second weeks.

[2] = Bulk and tapped density measurements
Protocol: Bulk density testing: A febuxostat form in an amount which is sufficient to complete the test was passed through a 1.0 mm (No. 18) screen to break up agglomerates that may have formed during storage. The febuxostat form was then weighed (M) and the powder was added into a 10 mL graduated cylinder. The powder was carefully leveled without compacting, and the unsettled apparent volume, Vo, was read. The bulk density, in g per mL, was calculated by the formula: Bulk Density=M/Vo Tapped density testing: A febuxostat form in an amount which is sufficient to complete the test was passed through a 1.0 mm (No. 18) screen to break up agglomerates that may have formed during storage. The febuxostat form was then weighed and the powder was added into a 10 mL graduated cylinder. The powder was carefully leveled without compacting. The cylinder was tapped 500 times initially and the tapped volume, Va, was measured to the nearest graduated unit. The tapping was then repeated for additional 750 times and the tapped volume, Vb, was measured to the nearest graduated unit. If the difference between the two volumes was less than 2%, Vb was taken as the final tapped volume, Vf. The tapped density, in g per mL, was calculated by the formula: Tapped Density=M/Vf

[3] = Aqueous solubility measurements; details: for pH: final pH of saturated solution
Protocol: Testing media: water, pH 1.2, 4.5, 6.8, 7.4 USP buffers, 0.01 N HCl, 0.1 N HCl, SGF, FaSSIF, FeSSIF.
The various testing media were prepared as follows:
pH 1.2 (USP): 50 mL of 0.2 M potassium chloride solution were placed in a 200 mL volumetric flask to which 85.0 mL of 0.2M hydrochloric acid solution were added followed by the addition of water to obtain the required volume.
pH 4.5 (USP): 50 mL of 0.2 M potassium biphthalate solution were placed in a 200 mL volumetric flask to which 8.8 mL of 0.2 M sodium hydroxide solution were added followed by the addition of water to obtain the required volume.
pH 6.8 (USP): 50 mL of 0.2 M monobasic potassium phosphate solution were placed in a 200 mL volumetric flask to which 22.4 mL of 0.2 M sodium hydroxide solution were added followed by the addition of water to obtain the required volume.
pH 7.4 (USP): 50 mL of 0.2 M monobasic potassium phosphate solution were placed in a 200 mL volumetric flask to which 39.1 mL of 0.2 M sodium hydroxide solution were added followed by the addition of water to obtain the required volume.
Simulated gastric fluid (SGF): 0.01 N HCl, 0.05% sodium lauryl sulfate, and 0.2% NaCl.
Fasted state simulated intestinal fluid (FaSSIF): 29 mM NaH2PO4, 3 mM Na taurocholate, 0.75 mM lecithin, 103 mM NaCl, and NaOH to obtain pH 6.5.
Fed state simulated intestinal fluid (FeSSIF): 144 mM acetic acid, 15 mM Na taurocholate, 3.75 mM lecithin, 204 mM NaCl, and NaOH to obtain pH 5.0.
Testing procedure: The tested febuxostat form was placed in each of the different media and was kept shaken for 24 hours at 25° C. Then, the saturated solution was filtered. The concentration of the febuxostat form in filtrate was determined by HPLC. The final pH was then tested. The test was conducted in duplication.

[4] = Hygroscopicity measurements (DVS sorption/desorption profiles)
Protocol: The sorption/desorption profiles of the forms of the present invention were tested at 25° C. under 0-90% relative humidity. The forms of the present invention were classified according to the following criteria: Deliquescent: Sufficient water is absorbed to form a liquid. […] Hygroscopic: Increase in mass is less than 15% and equal to or greater than 2%. Slightly hygroscopic: Increase in mass is less than 2% and equal to or greater than 0.2%. Non-hygroscopic: Increase in mass is less than 0.2%.

[5] = media 0.01N HCl, 24 hours at 25° C.
[6] = media 0.1N HCl, 24 hours at 25° C.
[7] = media FaSSIF, 24 hours at 25° C.
[8] = media FeSSIF, 24 hours at 25° C.
[9] = media pH 1.2 (USP), 24 hours at 25° C.
[10] = media pH 4.5 (USP), 24 hours at 25° C.
[11] = media pH 6.8 (USP), 24 hours at 25° C.
[12] = media pH 7.4 (USP), 24 hours at 25° C.
[13] = media water, 24 hours at 25° C.

Cc1nc(-c2ccc(OCC(C)C)c(C#N)c2)sc1C(=O)O [Form IX, 2-(3-cyano-4-isobutoxyphenyl)-4-methyl-5-thiazolecarboxylic acid]
physical stability (XRPD, DSC, TGA) ([1]; 40° C., 60° C. and light at the end of the first and second week): stable | physical stability (XRPD, DSC, TGA), form conversion ([1]; 40° C./75% RH at the end of the second week): partially converted to form G | physical stability (XRPD, DSC, TGA), form conversion ([1]; 60° C./75% RH at the end of the first and second weeks): completely converted to form G | Bulk Density [2]: 0.177 g/mL | Tapped Density [2]: 0.282 g/mL | bulk and tapped densities (in words) ([2]; compared among forms V, IX, XI and form G): lowest bulk and tapped densities | solubility at colon-simulated media and intestinal fluids (in words) ([3]; colon-simulated media (pHs=6.8-7.4) and intestinal fluids): improved solubility | pH [3, 5]: 2.078 | pH [3, 6]: 1.060 | pH [3, 7]: 6.246 | pH [3, 8]: 4.983 | pH ([3]; media SGF, 24 hours at 25° C.): 2.097 | pH [3, 9]: 1.242 | pH [3, 10]: 4.524 | pH [3, 11]: 6.477 | pH [3, 12]: 6.690 | pH ([3]; media water, shaken 24 hours at 25° C.): 5.403 | Visual solubility [3, 5]: Turbid + few particles | Visual solubility [3, 6]: Turbid + few particles | HPLC solubility [3, 7]: 606.65 µg/mL | Visual solubility [3, 7]: Turbid | HPLC solubility [3, 8]: 192.53 µg/mL | Visual solubility [3, 8]: Turbid | Visual solubility ([3]; media SGF, 24 hours at 25° C.): Turbid | Visual solubility [3, 9]: Turbid + few particles | HPLC solubility [3, 10]: 0.78 µg/mL | Visual solubility [3, 10]: Turbid + few particles | HPLC solubility [3, 11]: 1409.99 µg/mL | Visual solubility [3, 11]: Turbid + few particles | HPLC solubility [3, 12]: 4836.10 µg/mL | Visual solubility [3, 12]: Slightly turbid | HPLC solubility [3, 13]: 32.99 µg/mL | Visual solubility [3, 13]: Turbid + few particles | aqueous solubility (in words) ([3]; pH1.2 USP buffer, 0.01N HCl, 0.1N HCl and SGF): poor solubility | aqueous solubility (in words) ([3]; pH6.8 USP buffer, pH7.4 USP buffer, FaSSIF, FeSSIF): good solubility | Hygroscopicity classification ([4]; 25° C., 0-90% relative humidity): hygroscopic | hygroscopicity compared with Form G of U.S. Pat. No. 6,225,474 ([4]; DVS isotherm plots): less hygroscopic | Change in Mass (%) - ref, Desorption ([4]; Target % P/P0 0.0, 25° C.): 0.031% | Change in Mass (%) - ref, Sorption ([4]; Target % P/P0 0.0, 25° C.): 0.000% | Change in Mass (%) - ref, Desorption ([4]; Target % P/P0 10.0, 25° C.): 0.247% | Change in Mass (%) - ref, Hysteresis ([4]; Target % P/P0 10.0, 25° C.): 0.121% | Change in Mass (%) - ref, Sorption ([4]; Target % P/P0 10.0, 25° C.): 0.127% | Change in Mass (%) - ref, Desorption ([4]; Target % P/P0 20.0, 25° C.): 0.323% | Change in Mass (%) - ref, Hysteresis ([4]; Target % P/P0 20.0, 25° C.): 0.128% | Change in Mass (%) - ref, Sorption ([4]; Target % P/P0 20.0, 25° C.): 0.195% | Change in Mass (%) - ref, Desorption ([4]; Target % P/P0 30.0, 25° C.): 0.428% | Change in Mass (%) - ref, Hysteresis ([4]; Target % P/P0 30.0, 25° C.): 0.176% | Change in Mass (%) - ref, Sorption ([4]; Target % P/P0 30.0, 25° C.): 0.252% | Change in Mass (%) - ref, Desorption ([4]; Target % P/P0 40.0, 25° C.): 0.510% | Change in Mass (%) - ref, Hysteresis ([4]; Target % P/P0 40.0, 25° C.): 0.160% | Change in Mass (%) - ref, Sorption ([4]; Target % P/P0 40.0, 25° C.): 0.351% | Change in Mass (%) - ref, Desorption ([4]; Target % P/P0 50.0, 25° C.): 0.616% | Change in Mass (%) - ref, Hysteresis ([4]; Target % P/P0 50.0, 25° C.): 0.184% | Change in Mass (%) - ref, Sorption ([4]; Target % P/P0 50.0, 25° C.): 0.432% | Change in Mass (%) - ref, Desorption ([4]; Target % P/P0 60.0, 25° C.): 0.786% | Change in Mass (%) - ref, Hysteresis ([4]; Target % P/P0 60.0, 25° C.): 0.221% | Change in Mass (%) - ref, Sorption ([4]; Target % P/P0 60.0, 25° C.): 0.566% | Change in Mass (%) - ref, Desorption ([4]; Target % P/P0 70.0, 25° C.): 1.139% | Change in Mass (%) - ref, Hysteresis ([4]; Target % P/P0 70.0, 25° C.): 0.391% | Change in Mass (%) - ref, Sorption ([4]; Target % P/P0 70.0, 25° C.): 0.747% | Change in Mass (%) - ref, Desorption ([4]; Target % P/P0 80.0, 25° C.): 1.583% | Change in Mass (%) - ref, Hysteresis ([4]; Target % P/P0 80.0, 25° C.): 0.583% | Change in Mass (%) - ref, Sorption ([4]; Target % P/P0 80.0, 25° C.): 1.000% | Change in Mass (%) - ref, Desorption ([4]; Target % P/P0 90.0, 25° C.): 2.135% | Change in Mass (%) - ref, Sorption ([4]; Target % P/P0 90.0, 25° C.): 2.135%
